# ChEMBL document CHEMBL3091331, “Aminothiazole-featured pirinixic acid derivatives as dual 5-lipoxygenase and microsomal prostaglandin E2 synthase-1 inhibitors with improved potency and efficiency in vivo” (J Med Chem, 2013)
# Active and inactive are the calls of the source. No cut-off for these calls is given here.
# Tests used:
# [1] = molecular target: T1, Polyunsaturated fatty acid 5-lipoxygenase (Homo sapiens, UniProt P09917); assay: Inhibition of human recombinant 5-lipoxygenase expressed in Escherichia coli BL21 using arachidonic acid as substrate incubated 5 to 10 mins prior to substrate addition measured after 10 mins by HPLC analysis
# T1 sequence (P09917 whole entry): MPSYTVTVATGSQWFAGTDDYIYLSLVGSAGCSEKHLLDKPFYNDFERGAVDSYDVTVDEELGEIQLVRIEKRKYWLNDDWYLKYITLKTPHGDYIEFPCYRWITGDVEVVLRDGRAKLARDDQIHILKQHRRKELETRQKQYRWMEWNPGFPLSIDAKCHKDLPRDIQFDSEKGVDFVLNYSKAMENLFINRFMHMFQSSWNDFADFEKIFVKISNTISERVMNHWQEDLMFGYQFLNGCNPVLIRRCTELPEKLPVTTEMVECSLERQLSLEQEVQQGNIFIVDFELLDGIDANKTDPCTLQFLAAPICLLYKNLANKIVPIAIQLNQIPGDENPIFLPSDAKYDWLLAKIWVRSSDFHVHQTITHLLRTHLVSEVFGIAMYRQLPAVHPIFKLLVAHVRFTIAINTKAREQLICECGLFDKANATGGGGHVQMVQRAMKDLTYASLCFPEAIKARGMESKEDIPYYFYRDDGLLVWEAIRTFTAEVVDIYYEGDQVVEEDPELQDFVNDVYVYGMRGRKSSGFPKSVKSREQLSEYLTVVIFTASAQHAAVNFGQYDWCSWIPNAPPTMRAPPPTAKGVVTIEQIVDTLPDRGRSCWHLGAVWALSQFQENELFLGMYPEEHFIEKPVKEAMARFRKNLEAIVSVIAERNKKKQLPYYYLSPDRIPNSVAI
# [2] = molecular target: T1, Polyunsaturated fatty acid 5-lipoxygenase; assay: Inhibition of 5-lipoxygenase in A23187-stimulated human polymorphonuclear leukocytes using arachidonic acid as substrate incubated 15 mins prior to substrate addition measured after 10 mins by HPLC analysis
# Prostaglandin E synthase [3] = molecular target: T2, Prostaglandin E synthase (Homo sapiens, UniProt O14684); assay: Inhibition of mPGES-1 from human A549 cell microsomal membranes using PGH2 as substrate incubated 15 mins prior to substrate addition measured after 1 min by RP-HPLC analysis
# T2 sequence (O14684 whole entry): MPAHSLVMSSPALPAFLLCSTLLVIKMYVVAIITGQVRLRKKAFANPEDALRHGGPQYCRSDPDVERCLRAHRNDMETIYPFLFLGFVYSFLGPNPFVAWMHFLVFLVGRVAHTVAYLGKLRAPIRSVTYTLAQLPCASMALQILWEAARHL
# [4] = molecular target: T1, Polyunsaturated fatty acid 5-lipoxygenase; assay: Inhibition of 5-lipoxygenase in human polymorphonuclear leukocytes; type: cell-based
# Prostaglandin E synthase [5] = molecular target: T2, Prostaglandin E synthase; assay: Inhibition of mPGES-1 (unknown origin)
# Homo sapiens = species: Homo sapiens; assay: Translocation of 5-lipoxygenase from cytosol into nuclear membrane in A23187-stimulated human polymorphonuclear leukocytes assessed as enzyme product formation at 10 uM incubated for 15 mins prior to A23187-challenge measured after 5 mins by Western blotting analysis; type: functional
# [6] = system: Radical scavenging activity; assay: Antioxidant activity assessed as DPPH radical scavenging activity at 25 to 100 uM after 30 mins; type: functional
# [7] = molecular target: T3, Prostaglandin E synthase (Homo sapiens) (UniProt O14684); assay: Inhibition of mPGES-1 (unknown origin) assessed as remaining activity at 10 uM; values are per cent of control
# T3 sequence (whole entry): T2 sequence (O14684 whole entry)
# Mus musculus [8] = assay: Reduction of PGE2 biosynthesis in CD-1 mouse peritonitis model at 1 mg/kg, ip administered 30 mins prior to zymosan-challenge measured after 4 hrs by RIA (reference value: 1.46 +/- 0.08 ng/ml); type: functional, organism-based; parameters: dose 1 mg/kg
# Mus musculus [9] = assay: Antiinflammatory activity in CD-1 mouse peritonitis model assessed as reduction in vascular permeability at 1 mg/kg, ip administered 30 mins prior to zymosan-challenge measured after 4 hrs relative to vehicle-treated control; type: functional; conditions: CD-1, ip, route intraperitoneal
# Mus musculus [10] = assay: Reduction of LTC4 formation in CD-1 mouse peritonitis model at 1 mg/kg, ip administered 30 mins prior to zymosan-challenge measured after 30 mins by EIA relative to vehicle-treated control; type: functional; conditions: CD-1, ip, route intraperitoneal
# Mus musculus [11] = assay: Antiinflammatory activity in CD-1 mouse peritonitis model assessed as reduction in neutrophil infiltration at 1 mg/kg, ip administered 30 mins prior to zymosan-challenge measured after 4 hrs by spectrophotometry relative to vehicle-treated control; type: functional; conditions: CD-1, ip, route intraperitoneal
# [12] = molecular target: T4, Polyunsaturated fatty acid 5-lipoxygenase (Homo sapiens) (UniProt P09917); assay: Inhibition of human recombinant 5-lipoxygenase expressed in Escherichia coli BL21 using arachidonic acid as substrate at 1 uM incubated 5 to 10 mins prior to substrate addition measured after 10 mins by HPLC analysis
# T4 sequence (whole entry): T1 sequence (P09917 whole entry)
# Mus musculus [13] = assay: Antiinflammatory activity in CD-1 mouse peritonitis model assessed as reduction in myeloperoxidase activity at 1 mg/kg, ip administered 30 mins prior to zymosan-challenge measured after 4 hrs by spectrophotometry relative to vehicle-treated control; type: functional; conditions: CD-1, ip, route intraperitoneal
# [14] = Metabolic stability in Sprague-Dawley rat liver microsomes assessed as compound remaining at 10 uM after 60 mins by HPLC analysis; type: ADME; conditions: read-out: Stability
# [15] = molecular target: T4, Polyunsaturated fatty acid 5-lipoxygenase (Homo sapiens); assay: Ratio of IC50 for human recombinant 5-lipoxygenase expressed in Escherichia coli BL21 to IC50 for 5-lipoxygenase in human PMNL cells
SMILES,IC50 [1],IC50 [2],IC50 (Prostaglandin E synthase [3]),further results
CCCCC(Sc1nc(Cl)cc(Nc2nc(-c3ccc(Cl)cc3)cs2)n1)C(=O)O (stereo not given),3.8 µM,0.9 µM,1.2 µM,–
CCCCCCC(Sc1nc(Cl)cc(Nc2nc(-c3ccccc3)c(CC)s2)n1)C(=O)O (stereo not given),1.8 µM,0.7 µM,1.7 µM,–
CCCCCCC(Sc1nc(Cl)cc(Nc2ccc(-c3ccccc3)cc2)n1)C(=O)O (stereo not given),–,–,–,IC50 [4]: 0.73 µM
CCCCCCC(Sc1nc(Cl)cc(Nc2nc(-c3cccc4ccccc34)cs2)n1)C(=O)O (stereo not given),0.7 µM,0.4 µM,1.7 µM,–
CCCCCCC(Sc1nc(Cl)cc(Nc2nc(-c3ccc(Cl)cc3Cl)cs2)n1)C(=O)O (stereo not given),1.1 µM,0.8 µM,0.4 µM,–
CCCCCCC(Sc1nc(Cl)cc(Nc2nc(C34CC5CC(CC(C5)C3)C4)cs2)n1)C(=O)O (stereo not given),5 µM,3.3 µM,0.9 µM,–
CCCCCCC(Sc1nc(Cl)cc(Nc2nc(-c3ccccc3)c(-c3ccccc3)s2)n1)C(=O)O (stereo not given),0.7 µM,0.6 µM,0.6 µM,–
CCCCCC[C@@H](Sc1nc(Cl)cc(Nc2nc(-c3ccc4ccccc4c3)cs2)n1)C(=O)O,0.4 µM,0.4 µM,0.6 µM,–
CCC(Sc1nc(Cl)cc(Nc2nc(-c3ccc4ccccc4c3)cs2)n1)C(=O)O (stereo not given),2 µM,2.9 µM,1.4 µM,–
CCCCCCC(Sc1nc(Cl)cc(Nc2nc(-c3ccc(Cl)c(Cl)c3)cs2)n1)C(=O)O (stereo not given),0.7 µM,0.4 µM,0.3 µM,–
CCCCCCC(Sc1nc(Cl)cc(Nc2nc(-c3ccc4c(c3)CCCC4)cs2)n1)C(=O)O (stereo not given),2.3 µM,0.4 µM,0.4 µM,–
O=C(O)C(Sc1nc(Cl)cc(Nc2nc(-c3ccc(Cl)cc3)cs2)n1)c1cccc2ccccc12 (stereo not given),0.7 µM,0.4 µM,0.5 µM,–
CCCCCCC(Sc1nc(Cl)cc(Nc2cccc(-c3ccccc3)c2)n1)C(=O)O (stereo not given),–,–,–,IC50 [4]: 0.6 µM; IC50 (Prostaglandin E synthase [5]): 4 µM
CC(C)=CCC[C@]1(C)[C@@H](CC=C(C)C)C[C@]2(CC=C(C)C)C(=O)C(CC=C(C)C)=C(O)[C@@]1(C(=O)C(C)C)C2=O,–,–,–,Activity (Homo sapiens): Active
CCCCCCC(Sc1nc(Cl)cc(Nc2cccc(C)c2C)n1)C(=O)O (stereo not given),–,3.9 µM,–,–
CCCCCC[C@H](Sc1nc(Cl)cc(Nc2nc(-c3ccc4ccccc4c3)cs2)n1)C(=O)O,0.3 µM,0.9 µM,0.6 µM,–
CCCCCCC(Sc1nc(Cl)cc(Nc2nc(-c3ccc(Br)cc3)cs2)n1)C(=O)O (stereo not given),0.7 µM,0.3 µM,0.8 µM,–
CCCCCCC(Sc1nc(Cl)cc(Nc2nc(-c3ccc(Cl)cc3)cs2)n1)C(=O)O (stereo not given),0.8 µM,0.9 µM,0.7 µM,–

SMILES,IC50 [1],IC50 [2],IC50 (Prostaglandin E synthase [3]),further results
N[C@@H](CS)C(=O)O,–,–,–,Activity [6]: Active
CCCCCCC(Sc1nc(Cl)cc(Nc2ccc3[nH]c(C(F)(F)F)nc3c2)n1)C(=O)O (stereo not given),–,–,–,residual activity [7]: 43.4%
CCCCCCC(Sc1nc(Cl)cc(Nc2nc(-c3ccccc3)cs2)n1)C(=O)O (stereo not given),2 µM,0.6 µM,0.8 µM,–
CC(C)c1ccc2c(c1)c(SC(C)(C)C)c(CC(C)(C)C(=O)O)n2Cc1ccc(Cl)cc1,–,–,–,inhibition (Mus musculus [8]): inactive; inhibition in vivo at 1 mg/kg (Mus musculus [9]): 76%; inhibition in vivo at 1 mg/kg (Mus musculus [10]): 94%; inhibition in vivo at 1 mg/kg (Mus musculus [11]): 34%; inhibition [12]: inactive; inhibition in vivo at 1 mg/kg (Mus musculus [13]): 18%
O=C(O)CSc1nc(Cl)cc(Nc2nc(-c3ccc(Cl)cc3)cs2)n1,> 10 µM,> 10 µM,2.3 µM,–
CCCCCCC(Sc1nc(Cl)cc(Nc2nc(-c3ccccc3)c(C)s2)n1)C(=O)O (stereo not given),1.9 µM,0.6 µM,0.7 µM,"remaining at 1 h, 10 µM [14]: 74%"
O=C1O[C@H]([C@@H](O)CO)C(O)=C1O,–,–,–,Activity [6]: Active
CCOc1ccc2ccc(=O)oc2c1 [ETHOXYCOUMARIN],–,–,–,"remaining at 1 h, 10 µM [14]: 31%"
CCC(Sc1nc(Cl)cc(Nc2nc(-c3ccc(Cl)cc3)cs2)n1)C(=O)O (stereo not given),6.6 µM,3.6 µM,1.4 µM,–
CCCCCCC(Sc1nc(Cl)cc(Nc2nc(-c3ccc(F)cc3F)cs2)n1)C(=O)O (stereo not given),2.5 µM,1.5 µM,1.8 µM,–
CCCCCCC(Sc1nc(Cl)cc(Nc2nc(-c3ccc(OC)cc3)cs2)n1)C(=O)O (stereo not given),1.8 µM,0.8 µM,1.3 µM,–
CCCCCCC(Sc1nc(Cl)cc(Nc2nc(-c3ccc(C(F)(F)F)cc3)cs2)n1)C(=O)O (stereo not given),1.2 µM,0.6 µM,0.4 µM,–
CCCCCCC(Sc1nc(Cl)cc(Nc2nc(-c3ccc(F)c(F)c3)cs2)n1)C(=O)O (stereo not given),2.3 µM,1.5 µM,1.6 µM,–
CCCCCCC(Sc1nc(Cl)cc(Nc2nc(-c3ccc(Br)cc3)c(C)s2)n1)C(=O)O (stereo not given),1.6 µM,0.2 µM,1.3 µM,Ratio IC50 [15]: 8
CCCCCCC(Sc1nc(Cl)cc(Nc2nc(-c3ccc([N+](=O)[O-])cc3)cs2)n1)C(=O)O (stereo not given),1.8 µM,1.4 µM,5 µM,–
CCCCCCC(Sc1nc(Cl)cc(Nc2nc(-c3ccc(-c4ccccc4)cc3)cs2)n1)C(=O)O (stereo not given),0.6 µM,0.3 µM,0.5 µM,–
CCCCCCC(Sc1nc(Cl)cc(Nc2nc3c(s2)CCc2cc(OC)ccc2-3)n1)C(=O)O (stereo not given),1.9 µM,0.2 µM,1.9 µM,Ratio IC50 [15]: 8
CCCCCCC(Sc1nc(Cl)cc(Nc2nc(-c3ccc(C)cc3)cs2)n1)C(=O)O (stereo not given),3 µM,0.2 µM,0.7 µM,Ratio IC50 [15]: 8
